Experimental data from article PMC11134387, “Cancer-Stem-Cell Phenotype-Guided Discovery of a Microbiota-Inspired Synthetic Compound Targeting NPM1 for Leukemia” (JACS Au, 2024).

Molecular target: T1, NPM1 C-end WT (Homo sapiens, UniProt P06748)
T1 construct: the C-end domain (residues 225- 294); 6xHis (N); made in house; host or cells: E. coli BL21(DE3)
Experiment: Isothermal titration calorimetry, NPM1 C-end WT
Assay type: binding
Settings: ITC, 25 °C
Description: To confirm a direct interaction of UCM-13369 with NPM1 and to address which domain of the protein would be responsible for binding the compound, pure protein samples of the pentameric N-end domain of NPM1, along with the C-terminal DNA-binding domains of WT and mutant NPM1 C+, were used in calorimetry assays. […] This is indicative of a lower diversity in the chemical environment of amide protons consistent with the previously reported protein unfolding.[29] […] On the other hand, the pentameric construct of the NPM1 N-end, which lacks the AML-related region, yielded a much lower binding affinity (KD ca. 100 μM range, Figure 3D).
ITC experiments were performed in a Nano ITC Low Volume (TA Instruments) at 25 °C. […]
The purity of the protein samples was checked by SDS–PAGE analysis (Figure S3) and protein quantification was performed using the Bradford protein assay.5 NPM molar concentration was expressed as the pentameric form for NPM1 WT N-end and as a monomer for NPM1 C-end WT and mutant. […]
After extraction with acetonitrile and acidification, samples were desalted and concentrated with C18 tips. Mass spectra were recorded in a Hybrid Quadrupole-Orbitrap™ Mass Spectrometer (Thermo Scientific, Waltham, Massachusetts, USA)

T1 sequence (P06748 225-294): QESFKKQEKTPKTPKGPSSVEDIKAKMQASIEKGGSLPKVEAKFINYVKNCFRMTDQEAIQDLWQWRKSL

Compound: COc1ccc(C2Cc3[nH]c4ccccc4c3C(CCNCC3CC3)C2N)cc1 (stereo not shown) [4b, 4-{2-[(Cyclopropylmethyl)amino]ethyl}-2-(4-methoxyphenyl)-2,3,4,9-tetrahydro-1H-carbazol-3-amine]
- Kd: 37 µM
